Source: BindingDB's records for doi:10.1002/cmdc.202100576 (Experimental Drug Development Centre, 2021)
Values joined by “and” are separate entries in the source; they are usually repeats but may differ in a detail not shown here. Equal entries are not always repeated.

Tests used:
Assay in all cases: Various Assay
[1] = target: Replicase polyprotein 1ab (Severe acute respiratory syndrome coronavirus, UniProt P0C6X7)
[2] = target: Replicase polyprotein 1ab (Severe acute respiratory syndrome coronavirus 2, UniProt P0DTD1)
[3] = target: Replicase polyprotein 1ab (Middle East respiratory syndrome-related coronavirus (isolate United Kingdom/H123990006/2012), UniProt K9N7C7)

SMILES | IC50 [1] [nM] | also measured
CC(C)C[C@H](NC(=O)[C@H](CN1CCOCC1)NC(=O)OCc1ccccc1)C(=O)N[C@@H](C[C@@H]1CCNC1=O)C(=O)C(=O)NC(C)C [cmdc.202100576, 22e] | 7 | 
O=C[C@H](CC1CCNC1=O)NC(=O)[C@H](Cc1ccccc1)NC(=O)c1cc2ccccc2[nH]1 (some centres undefined) [cmdc.202100576, 18b] | 30 | IC50 [2]: 34 nM
Cc1ccc(SSc2nccs2)cc1 [cmdc.202100576, 17b] | 1300 | 
O=[N+]([O-])c1ccccc1SSc1nccs1 [cmdc.202100576, 17d] | 2000 | 
CC(C)C(=O)Nc1ccc(N(C(=O)Cn2nnc3ccccc32)[C@H](C(=O)NCc2ccccc2)c2ccc(O)cc2)cc1 [cmdc.202100576, 19c] | 1100 | 
O=C1c2c(O)cc(O)cc2O[C@@H](c2ccc(O)c(O)c2)[C@@H]1O [cmdc.202100576, 15] | 73000 | 
CC(C)C[C@@H](NC(=O)[C@H](Cc1cccc2ccccc12)NC(=O)OCc1ccccc1)C(=O)N[C@@H](C=O)CC1CCNC1=O (some centres undefined) [cmdc.202100576, 14e] | 230 | 
O=C(Nc1ccc(NC(=O)c2cc(B(O)O)cc([N+](=O)[O-])c2)cc1)c1cc(B(O)O)cc([N+](=O)[O-])c1 [acs.jmedchem.1c00409_ST.31] |  | Ki [1]: 22 nM
O=C(NCc1ccccc1)C(=O)[C@H](C[C@@H]1CCCNC1=O)NC(=O)[C@H](Cc1ccccc1)NC(=O)c1cc2ccccc2[nH]1 [cmdc.202100576, 23c] |  | IC50 [3]: < 1 nM
CC(C)C[C@H](NC(=O)[C@@H](NC(=O)OCc1ccccc1)C(C)OC(C)(C)C)C(=O)N[C@H](/C=C/C(=O)OC1CC1)C[C@@H]1CCNC1=O (some centres undefined) [cmdc.202100576, 5e] |  | Ki [1]: 99 nM
C=C(N[C@H](C=O)CC1CCNC1=O)[C@H](Cc1ccccc1)NC(=O)[C@@H](NC(=O)c1cncc(F)c1)C(C)C (some centres undefined) [cmdc.202100576, 18c] | 35 | 
CC(C)(C)c1ccc(N(C(=O)c2c[nH]cn2)[C@H](C(=O)NC2CCCC2)c2cccnc2)cc1 [cmdc.202100576, 19e] | 1700 | 
O=C(Nc1ccc(N(C(=O)Cn2nnc3ccccc32)[C@H](C(=O)NCc2ccccc2)c2ccsc2)cc1)C1CC1 [cmdc.202100576, 19f] | 2000 | 
CC(C)C[C@H](NC(=O)OCCc1cccc(Cl)c1)C(=O)N[C@@H](C[C@@H]1CCNC1=O)C(O)S(=O)(=O)O (some centres undefined) [cmdc.202100576, 20f] |  | IC50 [3]: 700 nM
O=C(NC1CCCCC1)C(=O)[C@H](C[C@@H]1CCCNC1=O)NC(=O)[C@H](CC1CCCCC1)NC(=O)c1cc2ccccc2o1 [cmdc.202100576, 23b] |  | IC50 [3]: < 1 nM
O=C[C@H](CC1CCNC1=O)NC(=O)[C@H](Cc1ccccc1)NC(=O)c1ccc2c(c1)OCO2 (some centres undefined) [cmdc.202100576, 18e] | 100 | IC50 [2]: 78 nM
O=C(Oc1ccc(OC(=O)c2cc(B(O)O)cc([N+](=O)[O-])c2)cc1)c1cc(B(O)O)cc([N+](=O)[O-])c1 [cmdc.202100576, 4b] |  | Ki [1]: 6700 nM
O=c1c(O[C@@H]2O[C@H](CO[C@@H]3OC[C@H](O)[C@H](O)[C@H]3O)[C@@H](O)[C@H](O)[C@H]2O)c(-c2ccc(O)c(O)c2)oc2cc(O)cc(O)c12 [cmdc.202100576, 12c] | 31600 | 
O=C[C@H](CC1CCNC1=O)NC(=O)[C@H](Cc1ccccc1)NC(=O)c1cc2cc(F)ccc2[nH]1 (some centres undefined) | 111 | 

SMILES | IC50 [1] [nM] | also measured
COC(C)[C@H](NC(=O)OCc1ccccc1)C(=O)N[C@@H](CC(C)C)C(=O)N[C@@H](C[C@@H]1CCNC1=O)C(=O)C(=O)NC(C)C (some centres undefined) [cmdc.202100576, 22c] | 6.8 | 
O=C(Oc1ccc(S(=O)(=O)c2ccc(OC(=O)C(Cl)=C(Cl)Cl)cc2Cl)cc1)C(Cl)=C(Cl)Cl [cmdc.202100576, 7b] | 900 | 
CC(C)[C@H](NC(=O)c1cc2ccccc2[nH]1)C(=O)N[C@@H](Cc1ccccc1)C(=O)N[C@H](C=O)CC1CCNC1=O (some centres undefined) [cmdc.202100576, 18d] | 50 | IC50 [2]: 68 nM
COC(=O)/C=C/[C@H](C[C@@H]1CCNC1=O)NC(=O)[C@H](CC(C)C)NC(=O)[C@@H](NC(=O)OCc1ccccc1)C(C)NC(=O)C(C)(C)C (some centres undefined) [cmdc.202100576, 5f] |  | Ki [1]: 38 nM
O=C(Oc1c(Cl)cc(Cl)cc1[N+](=O)[O-])c1cc(B(O)O)cc([N+](=O)[O-])c1 [cmdc.202100576, 4e] |  | Ki [1]: 6900 nM
Nc1cc(B(O)O)cc(C(=O)OCc2cccc(B(O)O)c2)c1 [cmdc.202100576, 4c] |  | Ki [1]: 3500 nM
COc1cccc2[nH]c(C(=O)N[C@@H](CC(C)C)C(=O)N[C@@H](C[C@@H]3CCNC3=O)C(=O)COC(=O)C3CC3)cc12 [WO2005113580-Ex-37] | 162 | 
CC(C)C[C@H](NC(=O)OC1CCN(C(=O)OC(C)(C)C)CC1)C(=O)N[C@@H](C[C@@H]1CCNC1=O)C(O)S(=O)(=O)O (some centres undefined) [cmdc.202100576, 20b] |  | IC50 [3]: 300 nM and 600 nM
CC(C)C[C@@H](NC(=O)OCc1ccccc1)C(=O)N[C@H](CC1CCNC1=O)C(=O)C(=O)NC(C)C (some centres undefined) [cmdc.202100576, 14d] | 4700 | 
Cc1cc(C(=O)N[C@@H](C)C(=O)N[C@H](C(=O)N[C@@H](CC(C)C)C(=O)N[C@H](C=CC(=O)OCc2ccccc2)C[C@@H]2CCNC2=O)C(C)C)no1 [the N3 Compound] | 9000 | 
O=C(NCc1ccccc1)C(=O)[C@H](C[C@@H]1CCCNC1=O)NC(=O)[C@H](CC1CCCCC1)NC(=O)c1cnc2ccccc2n1 [cmdc.202100576, 23f] |  | IC50 [3]: 5 nM
CC(C)C[C@@H](NC(=O)OCc1ccccc1)C(=O)N[C@@H](C=O)CC1CCNC1=O (some centres undefined) [cmdc.202100576, 14b] | 3500 | 
Fc1ccc(SSc2nccs2)cc1 [cmdc.202100576, 17f] | 2200 | 
CN1C(=O)C(=O)c2cc(C(=O)N3CCOCC3)ccc21 [cmdc.202100576, 13d] | 36400 | 
CC(C)(C)NC(=O)C(=O)[C@H](C[C@@H]1CCNC1=O)NC(=O)[C@H](CC1CCCCC1)NC(=O)[C@H](Cc1cccc2ccccc12)NC(=O)OCc1ccc(OCN2CCOCC2)cc1 [cmdc.202100576, 22b] | 6.6 | 
COC(=O)c1c[nH]c(SSc2ccccc2[N+](=O)[O-])n1 [cmdc.202100576, 17e] | 2000 | 
COc1cccc2[nH]c(C(=O)N(C)[C@@H](CC(C)C)C(=O)N[C@@H](C[C@@H]3CCNC3=O)C(=O)CO)cc12 [WO2005113580-Ex-29] | 83 | 
O=C(O)c1cc(O)cc(B(O)O)c1 [cmdc.202100576, 4d] |  | Ki [1]: 3500 nM
O=C1C(=O)N(Cc2ccccc2)c2ccc(C(=O)N3CCCC3)cc21 [cmdc.202100576, 13c] | 22900 | 

SMILES | IC50 [1] [nM] | also measured
COc1cccc2[nH]c(C(=O)N[C@@H](CC(C)C)C(=O)N[C@@H](C[C@@H]3CCNC3=O)C(C)=O)cc12 [WO2006061714, P38.5] | 2300 | 
CC(C)C[C@@H](NC(=O)[C@H](Cc1cccc2ccccc12)NC(=O)OCc1ccccc1)C(=O)N[C@H](CC1CCNC1=O)C(=O)C(=O)NC(C)C (some centres undefined) [cmdc.202100576, 14f] | 810 | 
CC(C)C[C@H](NC(=O)[C@H](CN(C)C)NC(=O)OCc1ccccc1)C(=O)N[C@@H](C[C@@H]1CCNC1=O)C(=O)C(=O)NC(C)(C)C [cmdc.202100576, 22d] | 7 | 
CCOC(=O)/C=C/[C@@H](C[C@H]1CCNC1=O)NC(=O)[C@@H](CC(C)C)NC(=O)[C@H](NC(=O)OCc1ccccc1)C(C)OC(C)(C)C (some centres undefined) [cmdc.202100576, 5b] |  | Ki [1]: 58 nM
CC(C)C(=O)Nc1ccc(N(C(=O)Cn2nnc3ccccc32)[C@H](C(=O)NCc2ccccc2)c2ccc(Cl)c(F)c2)cc1 [cmdc.202100576, 19b] | 800 | 
CC(C)C[C@H]1C(=O)N[C@H](C=O)CCC(=O)NCCCn2cc(nn2)C[C@@H]1CC(=O)OCc1ccccc1 [cmdc.202100576, 16c] | 15500 | 
O=C(NCc1ccccc1)C(=O)[C@H](C[C@@H]1CCCNC1=O)NC(=O)[C@H](Cc1ccccc1)NC(=O)c1cnc2ccccc2n1 [cmdc.202100576, 23d] |  | IC50 [3]: 2 nM
CC(C)C[C@H](NC(=O)[C@H](CN1CCC(F)CC1)NC(=O)OCc1ccccc1)C(=O)N[C@@H](C[C@@H]1CCNC1=O)C(=O)C(=O)NC(C)C [cmdc.202100576, 22f] | 7 | 
CC1CCN(C(=O)c2ccc3c(c2)C(=O)C(=O)N3Cc2ccc3ccccc3c2)CC1 [cmdc.202100576, 13b] | 19700 | 
CC(C)C[C@H](NC(=O)c1nc2ccccc2[nH]1)C(=O)N[C@H](C=O)C[C@@H]1CCNC1=O [WO2006061714-ID-09] | 30 | 
CC(C)C[C@H](NC(=O)OC1CCN(S(C)(=O)=O)CC1)C(=O)N[C@@H](C[C@@H]1CCNC1=O)C(O)S(=O)(=O)O (some centres undefined) [cmdc.202100576, 20c] |  | IC50 [3]: 500 nM
CC(C)C[C@H](NC(=O)OC1(Cc2ccccc2)CCN(C(=O)OC(C)(C)C)CC1)C(=O)N[C@@H](C[C@@H]1CCNC1=O)C(O)S(=O)(=O)O (some centres undefined) [cmdc.202100576, 20d] |  | IC50 [3]: 600 nM
CC(C)C(=O)Nc1ccc(N(C(=O)Cn2nnc3ccccc32)[C@H](C(=O)NCc2ccccc2)c2cccc(F)c2)cc1 [cmdc.202100576, 19d] | 1600 | 
O=C(Sc1nnc(C(F)(F)F)[nH]1)C1CCC(C#Cc2ccccc2)O1 (centres undefined) [cmdc.202100576, 7c] | 3000 | 
O=C1C(=O)N(Cc2ccc3ccccc3c2)c2ccc(C(=O)N3CCCC3)cc21 [cmdc.202100576, 13e] | 70300 | 
O=C(NCc1ccccc1)C(=O)[C@H](C[C@@H]1CCCNC1=O)NC(=O)[C@H](CC1CCCCC1)NC(=O)c1cc2ccccc2[nH]1 [cmdc.202100576, 23e] |  | IC50 [3]: 2 nM
O=C1C(=O)N(Cc2ccc3ccccc3c2)c2ccc(C(=O)N3CCCCC3)cc21 [cmdc.202100576, 13f] | 87800 | 
CC(=O)Nc1cnc(SSc2ccccc2[N+](=O)[O-])s1 [cmdc.202100576, 17c] | 1900 | 
